Assay results published in patent US9440957B2, “Compounds and compositions for modulating EGFR Activity” (Novartis AG, priority 2012, dated 2016).
Read-outs that look alike come from different tables or passages of the source.

Key:
EGFR(L858R/T790M) = target: T1, EGFR(L858R/T790M) (Homo sapiens, UniProt P00533, L858R/T790M); assay: EGFR biochemical assay (HTRF), IC50 determinations
T1 construct: purchased from Carna (GST-a.a. 669-1210)
In short: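 HTRF kinase reaction with biotin-TK peptide at room temperature, quenched with EDTA at 60 min and detected with PT66K/SAXL after 1 h. Without preincubation, enzyme starts the reaction with compound, ATP and peptide present. With preincubation, compound, enzyme and peptide sit at room temperature for a set time before ATP is added.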

[1] = target: human EGFR L858R (NIH/3T3 cells) (Homo sapiens, UniProt P00533, L858R); assay: EGFR target modulation in engineered NIH/3T3 cell lines (phospho-EGFR Y1068 AlphaLISA), EGFR L858R; format: cell-based; conditions: engineered NIH/3T3 cells, read-out: NIH3T3 IC50 (μM) EGFR (L858R)
In short: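 Engineered NIH/3T3 cells were plated overnight, then exposed to a 12-point 1:3 compound series (from a 10 μM stock) for 3 hours at 37 °C. WT-expressing cells alone were stimulated with 50 ng/ml EGF for 5 minutes before lysis. IC50s came from non-linear fits of AlphaLISA signal.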

HCC827 (Del E746-A750) = HCC827 (Del E746-A750) (Homo sapiens, UniProt P00533, DEL746-750); assay: EGFR target modulation in HCC827 cell line (phospho-EGFR Y1173 ELISA); format: cell-based
In short: (§1)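 Phospho-EGFR Y1173 levels were measured by chemiluminescent capture ELISA in lysates of cells exposed to compound for 3 hours at 37 °C. Inhibition was normalised to EGF-stimulated control cells taken as maximal response, and IC50 values were obtained by non-linear curve fitting.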

H3255 (EGFR L858R) = H3255 (EGFR L858R) (Homo sapiens, UniProt P00533, L858R); assay: EGFR target modulation in H3255 cell line (phospho-EGFR Y1173 ELISA); format: cell-based
In short: as §1

HEKn (EGFR WT) = HEKn (EGFR WT) (Homo sapiens, UniProt P00533); assay: EGFR target modulation in HEKn (EGFR-WT) cell line (phospho-EGFR Y1173 ELISA); format: cell-based; conditions: value outside parentheses
In short: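 Primary neonatal human keratinocytes (EGFR WT) were exposed to serially diluted compounds for 3 h, then lysed on ice. Phospho-EGFR Y1173 was measured by chemiluminescent sandwich ELISA using anti-EGFR capture.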

[2] = EGFR (L858R/T790M) with 90 min pre-incubation, read-out: IC50 (μM) Column B
[3] = EGFR (L858R/T790M) with no pre-incubation, read-out: IC50 (μM) Column A

T1 sequence (P00533 669-1210 T790M/L858R): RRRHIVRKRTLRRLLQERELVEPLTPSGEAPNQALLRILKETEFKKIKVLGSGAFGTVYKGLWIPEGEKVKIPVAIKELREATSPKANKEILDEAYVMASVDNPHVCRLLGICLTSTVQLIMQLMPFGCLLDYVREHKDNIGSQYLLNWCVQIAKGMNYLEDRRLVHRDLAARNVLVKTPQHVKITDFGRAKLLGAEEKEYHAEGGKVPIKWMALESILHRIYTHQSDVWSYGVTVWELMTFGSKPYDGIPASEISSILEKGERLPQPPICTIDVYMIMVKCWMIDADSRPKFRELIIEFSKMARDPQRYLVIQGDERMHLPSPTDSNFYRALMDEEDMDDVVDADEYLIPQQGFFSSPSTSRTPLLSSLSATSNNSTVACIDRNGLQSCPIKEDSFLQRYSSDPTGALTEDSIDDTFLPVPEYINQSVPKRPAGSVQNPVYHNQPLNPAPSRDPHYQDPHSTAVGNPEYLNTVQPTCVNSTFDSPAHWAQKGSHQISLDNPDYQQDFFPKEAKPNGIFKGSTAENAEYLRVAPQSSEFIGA
H3255 (EGFR L858R), sequence (P00533 25-1210 L858R): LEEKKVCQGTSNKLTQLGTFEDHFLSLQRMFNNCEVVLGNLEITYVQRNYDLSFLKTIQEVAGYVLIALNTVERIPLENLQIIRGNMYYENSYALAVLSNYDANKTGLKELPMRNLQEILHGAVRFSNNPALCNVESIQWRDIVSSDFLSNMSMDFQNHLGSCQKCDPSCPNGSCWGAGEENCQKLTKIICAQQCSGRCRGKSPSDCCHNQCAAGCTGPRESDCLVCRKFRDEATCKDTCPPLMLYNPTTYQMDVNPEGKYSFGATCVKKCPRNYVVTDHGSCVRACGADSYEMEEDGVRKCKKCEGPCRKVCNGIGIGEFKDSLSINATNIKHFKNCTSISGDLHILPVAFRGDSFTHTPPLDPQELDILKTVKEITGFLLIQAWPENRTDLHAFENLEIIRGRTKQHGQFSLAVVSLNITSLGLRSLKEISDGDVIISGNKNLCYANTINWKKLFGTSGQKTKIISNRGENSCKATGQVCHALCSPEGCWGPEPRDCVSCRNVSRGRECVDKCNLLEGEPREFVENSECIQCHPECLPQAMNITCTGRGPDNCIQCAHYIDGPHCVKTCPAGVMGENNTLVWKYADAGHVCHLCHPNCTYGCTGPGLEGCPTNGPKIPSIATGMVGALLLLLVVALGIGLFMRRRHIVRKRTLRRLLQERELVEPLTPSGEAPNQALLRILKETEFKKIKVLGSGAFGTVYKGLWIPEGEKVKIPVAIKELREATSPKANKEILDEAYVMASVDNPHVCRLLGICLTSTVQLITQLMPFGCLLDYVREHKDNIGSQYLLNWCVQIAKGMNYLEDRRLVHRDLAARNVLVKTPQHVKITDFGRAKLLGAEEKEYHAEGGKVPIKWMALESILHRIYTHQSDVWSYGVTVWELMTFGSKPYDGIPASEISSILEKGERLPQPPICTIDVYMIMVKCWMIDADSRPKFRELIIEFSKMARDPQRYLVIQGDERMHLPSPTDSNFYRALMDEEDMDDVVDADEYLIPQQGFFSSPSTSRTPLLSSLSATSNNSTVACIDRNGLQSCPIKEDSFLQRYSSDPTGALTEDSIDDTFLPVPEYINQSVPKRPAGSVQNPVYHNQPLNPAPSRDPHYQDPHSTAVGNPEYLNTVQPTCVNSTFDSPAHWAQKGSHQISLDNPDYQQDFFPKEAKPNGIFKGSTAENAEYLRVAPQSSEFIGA
human EGFR L858R (NIH/3T3 cells), sequence (P00533 25-1210 L858R): as above
HEKn (EGFR WT), sequence (P00533 25-1210): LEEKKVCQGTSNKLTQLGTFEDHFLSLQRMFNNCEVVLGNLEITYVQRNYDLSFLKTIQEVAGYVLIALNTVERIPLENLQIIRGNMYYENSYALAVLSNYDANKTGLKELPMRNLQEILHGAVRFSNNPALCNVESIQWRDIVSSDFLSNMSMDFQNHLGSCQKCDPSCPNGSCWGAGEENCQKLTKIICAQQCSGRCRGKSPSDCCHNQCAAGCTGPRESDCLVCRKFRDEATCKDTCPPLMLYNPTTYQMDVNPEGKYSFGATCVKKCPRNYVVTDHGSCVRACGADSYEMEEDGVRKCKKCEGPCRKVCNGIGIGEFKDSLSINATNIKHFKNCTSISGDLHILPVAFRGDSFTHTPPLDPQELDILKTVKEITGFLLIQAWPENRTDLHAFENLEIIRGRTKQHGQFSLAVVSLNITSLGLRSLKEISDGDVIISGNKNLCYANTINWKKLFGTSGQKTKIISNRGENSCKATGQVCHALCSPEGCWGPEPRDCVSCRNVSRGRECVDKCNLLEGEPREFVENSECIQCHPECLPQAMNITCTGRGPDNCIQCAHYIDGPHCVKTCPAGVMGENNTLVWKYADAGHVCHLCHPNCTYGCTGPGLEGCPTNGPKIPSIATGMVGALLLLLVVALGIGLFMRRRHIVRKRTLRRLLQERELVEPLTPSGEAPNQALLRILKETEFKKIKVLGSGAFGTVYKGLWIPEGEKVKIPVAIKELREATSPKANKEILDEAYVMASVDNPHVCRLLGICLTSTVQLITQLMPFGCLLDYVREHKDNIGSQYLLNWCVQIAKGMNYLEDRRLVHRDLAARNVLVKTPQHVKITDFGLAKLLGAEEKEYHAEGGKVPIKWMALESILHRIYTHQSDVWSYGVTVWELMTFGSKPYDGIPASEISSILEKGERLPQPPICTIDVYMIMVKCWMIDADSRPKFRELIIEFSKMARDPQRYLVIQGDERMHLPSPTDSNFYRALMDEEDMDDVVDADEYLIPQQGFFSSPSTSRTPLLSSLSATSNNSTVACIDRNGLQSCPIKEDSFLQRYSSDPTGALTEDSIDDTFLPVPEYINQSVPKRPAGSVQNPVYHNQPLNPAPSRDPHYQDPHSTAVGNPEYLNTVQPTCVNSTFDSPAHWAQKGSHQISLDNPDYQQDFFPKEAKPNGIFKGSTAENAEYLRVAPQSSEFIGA

| IC50 (EGFR(L858R/T790M); [2]) [µM] | IC50 (EGFR(L858R/T790M); [3]) [µM] | IC50 [1] [µM] | IC50 (HCC827 (Del E746-A750)) [nM] | IC50 (H3255 (EGFR L858R)) [nM] | IC50 (HEKn (EGFR WT)) [nM] | Compound |
| --- | --- | --- | --- | --- | --- | --- |
| < 0.001 | 0.002 | < 0.001 | < 1 | 2 | 79 | C=CC(=O)N1CCCC[C@@H](n2c(NC(=O)c3ccnc(C)c3)nc3cc(CN4CC(OC)C4)cc(C)c32)C1 [Example 17-154] |
| < 0.001 | 0.002 | < 0.001 | < 1 | 2 | 112 | C=CC(=O)N1CCCC[C@@H](n2c(NC(=O)c3ccnc(C)c3)nc3cc(CN4CC(F)C4)cc(C)c32)C1 [Example 17-152] |

Further lines, the compound ahead of its results:

| Compound | IC50 (EGFR(L858R/T790M); [2]) [µM] | IC50 (EGFR(L858R/T790M); [3]) [µM] | IC50 [1] [µM] | IC50 (HCC827 (Del E746-A750)) [nM] | IC50 (H3255 (EGFR L858R)) [nM] | IC50 (HEKn (EGFR WT)) [nM] |
| --- | --- | --- | --- | --- | --- | --- |
| C=CC(=O)N1CCCC[C@@H](n2c(NC(=O)c3ccnc(C)c3)nc3cc(CN4CC[C@H](OC)C4)cc(C)c32)C1 [Example 17-149] | < 0.001 | 0.002 | < 0.001 | < 1 | 2 | 76 |
| C=CC(=O)N1CCCC[C@@H](n2c(NC(=O)c3ccnc(C)c3)nc3cc(CN4CC[C@H](F)C4)cc(C)c32)C1 [Example 17-147] | < 0.001 | 0.002 | < 0.001 | < 1 | 2 | 79 |
| C=CC(=O)N1CCCC[C@@H](n2c(NC(=O)c3ccnc(C)c3)nc3cc(CN4CC[C@@H](OC)C4)cc(C)c32)C1 [Example 17-150] | < 0.001 | 0.003 | 0.001 | < 1 | 3 | 129 |
| C=CC(=O)N1CCCC[C@@H](n2c(NC(=O)c3ccnc(C)c3)nc3cc(CN4CC[C@@H](F)C4)cc(C)c32)C1 [Example 17-148] | < 0.001 | 0.002 | 0.001 | < 1 | 2 | 77 |
